Measurements: patent US20250324971A1, “HERBICIDAL DERIVATIVES” (SYNGENTA CROP PROTECTION AG, priority 2022, published 2025)

Key:
Assay type in all cases: in vivo
[1] = system: Zea mays (ZEAMX); assay: Post-Emergence Test (herbicidal, glasshouse pots); conditions: evaluated after 13 days
Procedure: (§1) Seeds of a variety of test species are sown in standard soil in pots (Setaria faberi (SETFA), Ipomoea hederacea (IPOHE), Echinochloa crus-galli (ECHCG), (Amaranthus retoflexus (AMARE), Zea mays (ZEAMX), and Amaranthus palmeri (AMAPA)). After 8 days cultivation under controlled conditions in a glasshouse (at 24° C./16° C., day/night; 14 hours light; 65% humidity), the plants arm sprayed with an aqueous spray solution derived from the formulation of the technical active ingredient in acetone/water (50:50) solution containing 0.5% Tween 20 (polyoxyethylene sorbitan monolaurate, CAS RN 9005-84-5). Rate of application is shown in g/ha in the tables below. The test plants are then grown in a glasshouse under controlled conditions in a glasshouse (at 24° C./16° C., day/night; 14 hours light; 65% humidity) and watered twice daily. After 13 days the test is evaluated for the percentage damage caused to the plant. The biological activities are shown in the following table on a five-point scale (5=81-100%; 4=61-80%; 3=41-60%; 2=21-40%; 1=0-20%; -=not tested).

[2] = system: Echinochloa crus-galli (ECHCG); assay: Post-Emergence Test (herbicidal, glasshouse pots); conditions: evaluated after 13 days
Procedure: as §1

[3] = system: Amaranthus palmeri (AMAPA); assay: Post-Emergence Test (herbicidal, glasshouse pots); conditions: evaluated after 13 days
Procedure: as §1

[4] = system: Setaria faberi (SETFA); assay: Post-Emergence Test (herbicidal, glasshouse pots); conditions: evaluated after 13 days
Procedure: as §1

[5] = system: Amaranthus retoflexus (AMARE); assay: Post-Emergence Test (herbicidal, glasshouse pots); conditions: evaluated after 13 days
Procedure: as §1

[6] = system: Ipomoea hederacea (IPOHE); assay: Post-Emergence Test (herbicidal, glasshouse pots); conditions: evaluated after 13 days
Procedure: as §1

[7] = system: Amaranthus palmeri (AMAPA); assay: Pre-Emergence Test (herbicidal, glasshouse pots); conditions: evaluated after 13 days, five-point scale
[8] = system: Zea mays (ZEAMX); assay: Pre-Emergence Test (herbicidal, glasshouse pots); conditions: evaluated after 13 days, five-point scale
[9] = system: Ipomoea hederacea (IPOHE); assay: Pre-Emergence Test (herbicidal, glasshouse pots); conditions: evaluated after 13 days, five-point scale
[10] = system: Setaria faberi (SETFA); assay: Pre-Emergence Test (herbicidal, glasshouse pots); conditions: evaluated after 13 days, five-point scale
[11] = system: Amaranthus retoflexus (AMARE); assay: Pre-Emergence Test (herbicidal, glasshouse pots); conditions: evaluated after 13 days, five-point scale
[12] = system: Echinochloa crus-galli (ECHCG); assay: Pre-Emergence Test (herbicidal, glasshouse pots); conditions: evaluated after 13 days, five-point scale

Compound: CCn1c(Oc2cc(C)on2)cc(=O)c(C(=O)O)c1-c1ccc(Cl)c(Cl)c1 [Compound 46, 2-(3,4-dichlorophenyl)-1-ethyl-6-(5-methylisoxazol-3-yl)oxy-4-oxo-pyridine-3-carboxylic acid]
- Post-Emergence Test ZEAMX percentage damage (five-point scale) ([1]; rate 250 g/ha): 0
- Post-Emergence Test ECHCG percentage damage (five-point scale) ([2]; rate 250 g/ha): 1 (1=0-20%)
- Post-Emergence Test AMAPA percentage damage (five-point scale) ([3]; rate 250 g/ha): 0
- Post-Emergence Test SETFA percentage damage (five-point scale) ([4]; rate 250 g/ha): 0
- Post-Emergence Test AMARE percentage damage (five-point scale) ([5]; rate 250 g/ha): 2 (2=21-40%)
- Post-Emergence Test IPHOE percentage damage (five-point scale) ([6]; rate 250 g/ha): 3 (3=41-60%)
- percentage damage caused to the plant, AMAPA ([7]; rate 250 g/ha): 1 (1=0-20%)
- percentage damage caused to the plant, ZEAMX ([8]; rate 250 g/ha): 0
- percentage damage caused to the plant, IPHOE ([9]; rate 250 g/ha): 2 (2=21-40%)
- percentage damage caused to the plant, SETFA ([10]; rate 250 g/ha): 1 (1=0-20%)
- percentage damage caused to the plant, AMARE ([11]; rate 250 g/ha): 2 (2=21-40%)
- percentage damage caused to the plant, ECHCG ([12]; rate 250 g/ha): 1 (1=0-20%)

Compound: CCn1c(Oc2ccc(F)cc2)cc(=O)c(C(=O)O)c1-c1ccc(Cl)c(Cl)c1 [Compound 4, 2-(3,4-dichlorophenyl)-1-ethyl-6-(4-fluorophenoxy)-4-oxo-pyridine-3-carboxylic acid]
- Post-Emergence Test ZEAMX percentage damage (five-point scale) ([1]; rate 1000 g/ha): 3 (3=41-60%)
- Post-Emergence Test ECHCG percentage damage (five-point scale) ([2]; rate 1000 g/ha): 4 (4=61-80%)
- Post-Emergence Test AMAPA percentage damage (five-point scale) ([3]; rate 1000 g/ha): 4 (4=61-80%)
- Post-Emergence Test SETFA percentage damage (five-point scale) ([4]; rate 1000 g/ha): 4 (4=61-80%)
- Post-Emergence Test AMARE percentage damage (five-point scale) ([5]; rate 1000 g/ha): 4 (4=61-80%)
- Post-Emergence Test IPHOE percentage damage (five-point scale) ([6]; rate 1000 g/ha): 3 (3=41-60%)
- percentage damage caused to the plant, AMAPA ([7]; rate 1000 g/ha): 3 (3=41-60%)
- percentage damage caused to the plant, ZEAMX ([8]; rate 1000 g/ha): 3 (3=41-60%)
- percentage damage caused to the plant, IPHOE ([9]; rate 1000 g/ha): 4 (4=61-80%)
- percentage damage caused to the plant, SETFA ([10]; rate 1000 g/ha): 5 (5=81-100%)
- percentage damage caused to the plant, AMARE ([11]; rate 1000 g/ha): 3 (3=41-60%)
- percentage damage caused to the plant, ECHCG ([12]; rate 1000 g/ha): 5 (5=81-100%)

Compound: CCn1c(Oc2cc(C3CC3)on2)cc(=O)c(C(=O)O)c1-c1ccc(Cl)c(Cl)c1 [Compound 55, 6-(5-cyclopropylisoxazol-3-yl)oxy-2-(3,4-dichlorophenyl)-1-ethyl-4-oxo-pyridine-3-carboxylic acid]
- Post-Emergence Test ZEAMX percentage damage (five-point scale) ([1]; rate 250 g/ha): 2 (2=21-40%)
- Post-Emergence Test ECHCG percentage damage (five-point scale) ([2]; rate 250 g/ha): 2 (2=21-40%)
- Post-Emergence Test AMAPA percentage damage (five-point scale) ([3]; rate 250 g/ha): 4 (4=61-80%)
- Post-Emergence Test SETFA percentage damage (five-point scale) ([4]; rate 250 g/ha): 2 (2=21-40%)
- Post-Emergence Test AMARE percentage damage (five-point scale) ([5]; rate 250 g/ha): 4 (4=61-80%)
- Post-Emergence Test IPHOE percentage damage (five-point scale) ([6]; rate 250 g/ha): 3 (3=41-60%)
- percentage damage caused to the plant, AMAPA ([7]; rate 250 g/ha): 0
- percentage damage caused to the plant, ZEAMX ([8]; rate 250 g/ha): 0
- percentage damage caused to the plant, IPHOE ([9]; rate 250 g/ha): 0
- percentage damage caused to the plant, SETFA ([10]; rate 250 g/ha): 1 (1=0-20%)
- percentage damage caused to the plant, AMARE ([11]; rate 250 g/ha): 1 (1=0-20%)
- percentage damage caused to the plant, ECHCG ([12]; rate 250 g/ha): 1 (1=0-20%)

Compound: CCn1c(Oc2ccc(F)c(F)c2)cc(=O)c(C(=O)O)c1-c1ccc(Cl)c(Cl)c1 [Compound 28, 2-(3,4-dichlorophenyl)-6-(3,4-difluorophenoxy)-1-ethyl-4-oxo-pyridine-3-carboxylic acid]
- Post-Emergence Test ZEAMX percentage damage (five-point scale) ([1]; rate 1000 g/ha): 4 (4=61-80%)
- Post-Emergence Test ECHCG percentage damage (five-point scale) ([2]; rate 1000 g/ha): 4 (4=61-80%)
- Post-Emergence Test AMAPA percentage damage (five-point scale) ([3]; rate 1000 g/ha): 4 (4=61-80%)
- Post-Emergence Test SETFA percentage damage (five-point scale) ([4]; rate 1000 g/ha): 4 (4=61-80%)
- Post-Emergence Test AMARE percentage damage (five-point scale) ([5]; rate 1000 g/ha): 4 (4=61-80%)
- Post-Emergence Test IPHOE percentage damage (five-point scale) ([6]; rate 1000 g/ha): 3 (3=41-60%)
- percentage damage caused to the plant, AMAPA ([7]; rate 1000 g/ha): 4 (4=61-80%)
- percentage damage caused to the plant, ZEAMX ([8]; rate 1000 g/ha): 4 (4=61-80%)
- percentage damage caused to the plant, IPHOE ([9]; rate 1000 g/ha): 4 (4=61-80%)
- percentage damage caused to the plant, SETFA ([10]; rate 1000 g/ha): 5 (5=81-100%)
- percentage damage caused to the plant, AMARE ([11]; rate 1000 g/ha): 5 (5=81-100%)
- percentage damage caused to the plant, ECHCG ([12]; rate 1000 g/ha): 4 (4=61-80%)

Compound: CCn1c(Oc2ccc(OC)c(OC)c2)cc(=O)c(C(=O)O)c1-c1ccc(Cl)c(Cl)c1 [Compound 21, 2-(3,4-dichlorophenyl)-6-(3,4-dimethoxyphenoxy)-1-ethyl-4-oxo-pyridine-3-carboxylic acid]
- Post-Emergence Test ZEAMX percentage damage (five-point scale) ([1]; rate 1000 g/ha): 1 (1=0-20%)
- Post-Emergence Test ECHCG percentage damage (five-point scale) ([2]; rate 1000 g/ha): 1 (1=0-20%)
- Post-Emergence Test AMAPA percentage damage (five-point scale) ([3]; rate 1000 g/ha): 3 (3=41-60%)
- Post-Emergence Test SETFA percentage damage (five-point scale) ([4]; rate 1000 g/ha): 5 (5=81-100%)
- Post-Emergence Test AMARE percentage damage (five-point scale) ([5]; rate 1000 g/ha): 4 (4=61-80%)
- Post-Emergence Test IPHOE percentage damage (five-point scale) ([6]; rate 1000 g/ha): 3 (3=41-60%)
- percentage damage caused to the plant, AMAPA ([7]; rate 1000 g/ha): 1 (1=0-20%)
- percentage damage caused to the plant, ZEAMX ([8]; rate 1000 g/ha): 1 (1=0-20%)
- percentage damage caused to the plant, IPHOE ([9]; rate 1000 g/ha): 3 (3=41-60%)
- percentage damage caused to the plant, SETFA ([10]; rate 1000 g/ha): 4 (4=61-80%)
- percentage damage caused to the plant, AMARE ([11]; rate 1000 g/ha): 1 (1=0-20%)
- percentage damage caused to the plant, ECHCG ([12]; rate 1000 g/ha): 2 (2=21-40%)

Compound: CCn1c(Oc2ccc(C)cc2)cc(=O)c(C(=O)O)c1-c1ccc(Cl)c(Cl)c1 [Compound 53, 2-(3,4-dichlorophenyl)-1-ethyl-6-(4-methylphenoxy)-4-oxo-pyridine-3-carboxylic acid]
- Post-Emergence Test ZEAMX percentage damage (five-point scale) ([1]; rate 250 g/ha): 1 (1=0-20%)
- Post-Emergence Test ECHCG percentage damage (five-point scale) ([2]; rate 250 g/ha): 0
- Post-Emergence Test AMAPA percentage damage (five-point scale) ([3]; rate 250 g/ha): 4 (4=61-80%)
- Post-Emergence Test SETFA percentage damage (five-point scale) ([4]; rate 250 g/ha): 1 (1=0-20%)
- Post-Emergence Test AMARE percentage damage (five-point scale) ([5]; rate 250 g/ha): 3 (3=41-60%)
- Post-Emergence Test IPHOE percentage damage (five-point scale) ([6]; rate 250 g/ha): 4 (4=61-80%)
- percentage damage caused to the plant, AMAPA ([7]; rate 250 g/ha): 0
- percentage damage caused to the plant, ZEAMX ([8]; rate 250 g/ha): 0
- percentage damage caused to the plant, IPHOE ([9]; rate 250 g/ha): 1 (1=0-20%)
- percentage damage caused to the plant, SETFA ([10]; rate 250 g/ha): 1 (1=0-20%)
- percentage damage caused to the plant, AMARE ([11]; rate 250 g/ha): 2 (2=21-40%)
- percentage damage caused to the plant, ECHCG ([12]; rate 250 g/ha): 0

Compound: CCn1c(Oc2ccnc(Cl)c2)cc(=O)c(C(=O)O)c1-c1ccc(Cl)c(Cl)c1 [Compound 54, 6-[(2-chloro-4-pyridyl)oxy]-2-(3,4-dichlorophenyl)-1-ethyl-4-oxo-pyridine-3-carboxylic acid]
- Post-Emergence Test ZEAMX percentage damage (five-point scale) ([1]; rate 250 g/ha): 4 (4=61-80%)
- Post-Emergence Test ECHCG percentage damage (five-point scale) ([2]; rate 250 g/ha): 3 (3=41-60%)
- Post-Emergence Test AMAPA percentage damage (five-point scale) ([3]; rate 250 g/ha): 3 (3=41-60%)
- Post-Emergence Test SETFA percentage damage (five-point scale) ([4]; rate 250 g/ha): 3 (3=41-60%)
- Post-Emergence Test AMARE percentage damage (five-point scale) ([5]; rate 250 g/ha): 4 (4=61-80%)
- Post-Emergence Test IPHOE percentage damage (five-point scale) ([6]; rate 250 g/ha): 4 (4=61-80%)
- percentage damage caused to the plant, AMAPA ([7]; rate 250 g/ha): 1 (1=0-20%)
- percentage damage caused to the plant, ZEAMX ([8]; rate 250 g/ha): 1 (1=0-20%)
- percentage damage caused to the plant, IPHOE ([9]; rate 250 g/ha): 4 (4=61-80%)
- percentage damage caused to the plant, SETFA ([10]; rate 250 g/ha): 5 (5=81-100%)
- percentage damage caused to the plant, AMARE ([11]; rate 250 g/ha): 3 (3=41-60%)
- percentage damage caused to the plant, ECHCG ([12]; rate 250 g/ha): 4 (4=61-80%)
